In patent publication US12071408B2, “Multi-targeted tyrosine kinase inhibitors effective in antitumor uses” (Shanghai AB PharmaTech Ltd., priority 2021, dated 2024) one finds IC50 data, which are given here for eight molecules.

One assay deals with FGFR2 (Homo sapiens (Human), UniProt P21802). Description: Kinase inhibition, Mobility-Shift Assay. Format: biochemical. Conditions: class; read-out: FGFR2 range of activity effects (IC50).
Another assay concerns the target FGFR4 (Homo sapiens (Human), UniProt P22455). Description: Kinase inhibition, Mobility-Shift Assay. Format: biochemical. Conditions: class; read-out: FGFR4 range of activity effects (IC50).
Assay [1] relates to hepatocellular carcinoma cell line (Hep3B 2.1-7). Description: Tumor cell proliferation inhibition (CTG, 72 h). Format: cell-based. Conditions: Homo sapiens; Hep3B 2.1-7 cells, class; read-out: Hep3B 2.1-7 range of activity (IC50).
For another assay, the target named is VEGFR-2 (KDR) (Homo sapiens (Human), UniProt P35968). Description: Kinase inhibition, Mobility-Shift Assay. Conditions: class; read-out: KDR activity effect range (IC50). The assay is classed as biochemical.
Chain of VEGFR-2 (KDR) (P35968 20-1356): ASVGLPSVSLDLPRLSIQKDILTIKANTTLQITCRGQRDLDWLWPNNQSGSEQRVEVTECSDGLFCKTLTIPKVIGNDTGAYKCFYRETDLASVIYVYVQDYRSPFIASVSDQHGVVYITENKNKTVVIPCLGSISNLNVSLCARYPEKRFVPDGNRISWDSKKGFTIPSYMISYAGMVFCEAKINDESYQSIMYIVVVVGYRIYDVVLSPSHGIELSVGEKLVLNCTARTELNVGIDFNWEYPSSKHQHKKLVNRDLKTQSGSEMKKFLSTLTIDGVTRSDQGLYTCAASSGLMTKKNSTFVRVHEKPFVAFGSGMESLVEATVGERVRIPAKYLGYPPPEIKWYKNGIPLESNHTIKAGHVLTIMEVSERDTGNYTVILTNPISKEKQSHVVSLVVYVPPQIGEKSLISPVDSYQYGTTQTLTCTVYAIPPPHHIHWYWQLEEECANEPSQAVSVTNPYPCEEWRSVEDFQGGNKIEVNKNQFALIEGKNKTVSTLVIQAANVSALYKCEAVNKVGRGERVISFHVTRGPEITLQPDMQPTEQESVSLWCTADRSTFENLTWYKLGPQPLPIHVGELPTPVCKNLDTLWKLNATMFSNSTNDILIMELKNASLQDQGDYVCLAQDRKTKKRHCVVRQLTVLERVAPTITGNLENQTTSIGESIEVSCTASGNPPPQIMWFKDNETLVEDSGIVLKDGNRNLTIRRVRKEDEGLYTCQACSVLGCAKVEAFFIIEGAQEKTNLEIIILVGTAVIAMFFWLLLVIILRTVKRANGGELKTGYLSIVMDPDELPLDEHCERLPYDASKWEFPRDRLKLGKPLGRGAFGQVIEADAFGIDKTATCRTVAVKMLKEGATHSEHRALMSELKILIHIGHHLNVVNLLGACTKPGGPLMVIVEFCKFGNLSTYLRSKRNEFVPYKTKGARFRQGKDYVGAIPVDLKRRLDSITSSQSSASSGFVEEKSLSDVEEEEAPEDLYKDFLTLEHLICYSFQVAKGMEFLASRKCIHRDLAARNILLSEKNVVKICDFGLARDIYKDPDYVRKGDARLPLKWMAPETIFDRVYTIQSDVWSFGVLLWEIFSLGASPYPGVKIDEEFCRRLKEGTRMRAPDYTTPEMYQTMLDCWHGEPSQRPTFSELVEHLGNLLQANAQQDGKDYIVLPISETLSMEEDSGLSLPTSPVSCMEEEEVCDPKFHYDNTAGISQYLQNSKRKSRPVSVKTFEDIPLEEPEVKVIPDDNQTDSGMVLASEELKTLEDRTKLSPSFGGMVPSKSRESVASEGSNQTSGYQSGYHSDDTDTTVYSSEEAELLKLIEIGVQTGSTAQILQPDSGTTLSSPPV
The next assay has as its target EGFR (Homo sapiens (Human), UniProt P00533). Description: Kinase inhibition, Mobility-Shift Assay. The assay is classed as biochemical. Conditions: class; read-out: EGFR range of activity (IC50).
Assay [2] concerns leukemia cell line (K562). Description: Tumor cell proliferation inhibition (CTG, 72 h). The assay is classed as cell-based. Conditions: Homo sapiens; K562 cells, class; read-out: K562 activity effect range (IC50).
Assay [3] concerns bladder cancer cell line (RT112/84). Description: Tumor cell proliferation inhibition (CTG, 72 h). The assay is classed as cell-based. Conditions: Homo sapiens; RT112/84 cells, class; read-out: RT112/84 range of activity (IC50).
The test system of assay [4] is cervical cancer cell line (Hela). Description: Tumor cell proliferation inhibition (CTG, 72 h). The assay is classed as cell-based. Conditions: Homo sapiens; Hela cells, class; read-out: Hela activity effect range (IC50).
For assay [5], the system named is thyroid cancer cell line (TT). Description: Tumor cell proliferation inhibition (CTG, 72 h). The assay is classed as cell-based. Conditions: Homo sapiens; TT cells, class; read-out: TT range of activity (IC50).
Another assay addresses C-MET (Homo sapiens (Human), UniProt P08581). Description: Kinase inhibition, Mobility-Shift Assay. Format: biochemical. Conditions: class; read-out: C-MET range of activity (IC50).

Chain of C-MET (P08581 25-1390): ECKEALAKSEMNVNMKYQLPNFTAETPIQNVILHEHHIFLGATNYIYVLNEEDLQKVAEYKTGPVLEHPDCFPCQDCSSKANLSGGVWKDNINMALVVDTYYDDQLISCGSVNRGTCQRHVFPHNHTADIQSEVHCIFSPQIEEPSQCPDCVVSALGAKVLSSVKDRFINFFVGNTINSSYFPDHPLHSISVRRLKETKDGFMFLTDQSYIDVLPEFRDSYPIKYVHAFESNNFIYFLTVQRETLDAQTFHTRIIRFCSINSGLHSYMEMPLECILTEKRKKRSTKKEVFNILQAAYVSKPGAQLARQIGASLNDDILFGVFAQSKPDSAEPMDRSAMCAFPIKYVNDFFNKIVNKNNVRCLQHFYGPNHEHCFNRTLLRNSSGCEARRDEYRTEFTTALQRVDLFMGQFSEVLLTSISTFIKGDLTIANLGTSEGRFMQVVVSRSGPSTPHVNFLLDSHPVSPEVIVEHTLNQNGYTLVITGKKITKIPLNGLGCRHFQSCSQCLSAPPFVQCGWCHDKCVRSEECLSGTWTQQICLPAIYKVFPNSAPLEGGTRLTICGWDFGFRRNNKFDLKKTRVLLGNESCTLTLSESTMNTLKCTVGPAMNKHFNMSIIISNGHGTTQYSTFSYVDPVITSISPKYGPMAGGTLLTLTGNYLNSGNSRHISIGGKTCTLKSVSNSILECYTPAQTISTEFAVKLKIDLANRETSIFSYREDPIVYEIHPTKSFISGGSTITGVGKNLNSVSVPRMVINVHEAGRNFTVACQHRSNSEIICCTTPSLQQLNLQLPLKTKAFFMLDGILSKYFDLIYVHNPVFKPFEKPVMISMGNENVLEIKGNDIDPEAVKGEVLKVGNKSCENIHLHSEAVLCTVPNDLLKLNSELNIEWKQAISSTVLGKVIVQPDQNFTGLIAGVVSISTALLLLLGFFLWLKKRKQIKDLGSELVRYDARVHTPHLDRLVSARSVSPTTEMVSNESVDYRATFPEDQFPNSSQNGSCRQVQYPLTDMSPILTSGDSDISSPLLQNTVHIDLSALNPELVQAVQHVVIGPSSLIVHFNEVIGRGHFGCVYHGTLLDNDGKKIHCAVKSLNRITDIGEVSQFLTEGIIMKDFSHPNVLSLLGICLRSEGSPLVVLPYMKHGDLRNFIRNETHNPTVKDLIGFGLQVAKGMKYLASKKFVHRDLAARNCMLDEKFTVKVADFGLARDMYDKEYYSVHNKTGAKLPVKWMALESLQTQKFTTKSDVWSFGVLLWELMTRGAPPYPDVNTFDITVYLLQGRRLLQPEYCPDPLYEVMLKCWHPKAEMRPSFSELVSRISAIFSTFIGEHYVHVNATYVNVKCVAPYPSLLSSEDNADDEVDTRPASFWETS
Chain of FGFR4 (P22455 22-802): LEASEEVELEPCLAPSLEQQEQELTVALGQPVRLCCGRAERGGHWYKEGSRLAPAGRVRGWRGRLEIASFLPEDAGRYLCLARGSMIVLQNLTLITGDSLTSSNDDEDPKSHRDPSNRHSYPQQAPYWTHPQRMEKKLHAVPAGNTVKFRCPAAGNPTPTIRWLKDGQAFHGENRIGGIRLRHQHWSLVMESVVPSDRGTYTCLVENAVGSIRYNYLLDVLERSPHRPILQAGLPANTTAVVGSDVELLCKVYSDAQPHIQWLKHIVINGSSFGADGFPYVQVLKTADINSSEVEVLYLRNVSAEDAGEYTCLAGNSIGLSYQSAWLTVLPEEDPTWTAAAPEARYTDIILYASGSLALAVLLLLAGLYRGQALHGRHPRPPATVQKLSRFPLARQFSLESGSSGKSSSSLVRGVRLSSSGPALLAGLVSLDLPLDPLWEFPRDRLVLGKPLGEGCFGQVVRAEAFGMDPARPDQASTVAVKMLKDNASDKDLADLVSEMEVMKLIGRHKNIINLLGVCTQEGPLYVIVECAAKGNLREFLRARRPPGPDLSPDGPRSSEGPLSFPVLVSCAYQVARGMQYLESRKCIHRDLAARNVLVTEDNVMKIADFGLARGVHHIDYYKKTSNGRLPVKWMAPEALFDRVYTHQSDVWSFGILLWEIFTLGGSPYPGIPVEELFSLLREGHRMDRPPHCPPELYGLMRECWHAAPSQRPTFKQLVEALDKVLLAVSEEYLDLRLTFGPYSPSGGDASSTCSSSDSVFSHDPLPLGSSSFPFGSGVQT
Chain of FGFR2 (P21802 22-821): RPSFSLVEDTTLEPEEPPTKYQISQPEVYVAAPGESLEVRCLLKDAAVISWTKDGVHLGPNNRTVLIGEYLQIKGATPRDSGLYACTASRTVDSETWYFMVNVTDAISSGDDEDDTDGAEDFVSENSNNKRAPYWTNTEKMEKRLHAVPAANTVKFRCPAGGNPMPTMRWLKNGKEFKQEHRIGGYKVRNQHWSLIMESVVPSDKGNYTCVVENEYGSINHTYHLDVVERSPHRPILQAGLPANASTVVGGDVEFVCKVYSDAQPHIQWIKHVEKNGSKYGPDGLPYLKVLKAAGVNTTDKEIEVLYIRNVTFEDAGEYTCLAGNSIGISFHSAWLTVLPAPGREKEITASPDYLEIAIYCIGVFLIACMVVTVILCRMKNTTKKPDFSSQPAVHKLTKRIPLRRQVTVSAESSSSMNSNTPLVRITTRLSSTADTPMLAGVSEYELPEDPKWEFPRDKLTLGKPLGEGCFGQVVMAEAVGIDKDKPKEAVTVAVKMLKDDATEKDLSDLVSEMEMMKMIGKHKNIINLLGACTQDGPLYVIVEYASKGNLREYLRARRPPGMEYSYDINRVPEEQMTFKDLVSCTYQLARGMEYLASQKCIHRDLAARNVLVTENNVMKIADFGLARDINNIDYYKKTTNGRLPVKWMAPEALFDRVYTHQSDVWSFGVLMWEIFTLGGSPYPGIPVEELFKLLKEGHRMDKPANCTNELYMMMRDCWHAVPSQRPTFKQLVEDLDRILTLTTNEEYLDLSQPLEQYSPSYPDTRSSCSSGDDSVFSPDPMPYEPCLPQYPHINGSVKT

Consider `COc1cc2nccc(Oc3c(F)cc(NC(=O)NC[C@H](C)O)c(Cl)c3F)c2cc1C(N)=O` [III-09], for which the IC50 at FGFR2 is more than 100 nM; on FGFR4, more than 100 nM; in [1], more than 5000 nM; at VEGFR-2 (KDR), more than 10 nM; on EGFR, more than 100 nM; in assay [2] it was more than 10000 nM. Further, the IC50 is more than 1000 nM in assay [3], more than 10000 nM in assay [4], more than 10000 nM in assay [5] and more than 100 nM on C-MET.
`[2H]C([2H])([2H])Oc1c(Cl)c(NC(=O)NC2CC2)cc(F)c1Oc1ccnc2cc(OC)c(C(N)=O)cc12` [III-43]: the IC50 is more than 100 nM on FGFR2; more than 100 nM at FGFR4; more than 5000 nM in assay [1]; more than 10 nM at VEGFR-2 (KDR); more than 100 nM at EGFR; more than 10000 nM in [2]. The IC50 in assay [3] was more than 1000 nM; in assay [4] it was more than 10000 nM; in [5] it was more than 10000 nM; on C-MET, more than 100 nM.
As to `COc1cc2nccc(Oc3c(F)cc(NC(=O)N(C)C(C)C)c(Cl)c3F)c2cc1C(N)=O` [III-02], the IC50 at FGFR2 is more than 100 nM; on FGFR4 it was more than 100 nM; in assay [1] it was more than 5000 nM; at VEGFR-2 (KDR), more than 10 nM; at EGFR, more than 100 nM; in assay [2] it was more than 10000 nM. Further, the IC50 is more than 1000 nM in assay [3], more than 10000 nM in assay [4], more than 10000 nM in assay [5] and more than 100 nM at C-MET.
For `COc1cc2nccc(Oc3c(Cl)cc(NC(=O)NC4CC4)c(F)c3F)c2cc1C(N)=O` [III-35], the IC50 is more than 100 nM at FGFR2; more than 100 nM on FGFR4; more than 5000 nM in assay [1]; more than 10 nM at VEGFR-2 (KDR); more than 100 nM on EGFR; more than 10000 nM in [2]. In addition, the IC50 in assay [3] was more than 1000 nM; in assay [4], more than 10000 nM; in [5], more than 10000 nM; on C-MET, more than 100 nM.
Turning to `COc1cc2nccc(Oc3c(F)cc(NC(=O)NCC(C)(C)O)c(Cl)c3F)c2cc1C(N)=O` [III-12], the IC50 at FGFR2 was more than 100 nM; at FGFR4, more than 100 nM; in [1] it was more than 5000 nM; on VEGFR-2 (KDR), more than 10 nM; on EGFR it was more than 100 nM; in [2] it was more than 10000 nM. Also, the IC50 in assay [3] was more than 1000 nM; in assay [4], more than 10000 nM; in assay [5], more than 10000 nM; on C-MET, more than 100 nM.
For the molecule `COc1cc2nccc(Oc3c(F)cc(NC(=O)NC[C@H](O)CO)c(Cl)c3F)c2cc1C(N)=O` [III-14], the IC50 on FGFR2 is more than 100 nM; at FGFR4, more than 100 nM; in [1], more than 5000 nM; on VEGFR-2 (KDR), more than 10 nM; on EGFR, more than 100 nM; in [2], more than 10000 nM. For the same molecule, the IC50 in [3] is more than 1000 nM; in [4] it was more than 10000 nM; in [5], more than 10000 nM; at C-MET, more than 100 nM.
Regarding `COc1cc2nccc(Oc3c(F)cc(NC(=O)NC4(C)CC4)c(F)c3F)c2cc1C(N)=O` [III-21], the IC50 was more than 100 nM on FGFR2; more than 100 nM at FGFR4; more than 5000 nM in [1]; more than 10 nM on VEGFR-2 (KDR); more than 100 nM at EGFR; more than 10000 nM in assay [2]. The IC50 is more than 1000 nM in assay [3], more than 10000 nM in [4], more than 10000 nM in assay [5] and more than 100 nM on C-MET.
Take `COc1cc2nccc(Oc3c(F)cc(NC(=O)N4CCN(C)CC4)c(Cl)c3F)c2cc1C(N)=O` [III-33]: the IC50 on FGFR2 is more than 100 nM; at FGFR4, more than 100 nM; in assay [1] it was more than 5000 nM; on VEGFR-2 (KDR), more than 10 nM; on EGFR, more than 100 nM; in [2], more than 10000 nM. In addition, the IC50 in assay [3] was more than 1000 nM; in [4], more than 10000 nM; in assay [5], more than 10000 nM; at C-MET, more than 100 nM.
